Test results reported in patent publication US20240197756A1, “METHODS OF TREATMENT WITH NEUROACTIVE STEROIDS” (priority 2021, published 2024).

Assays:
harmaline-induced tremor = assay: rHIT model, coadministration of Compound 1 and Compound 2; format: in vivo, rat
Method: Rat Harmaline Induced Tremor (rHIT): The rHIT model was used to assess the impact of the combination of Compound 1 and Compound 2 on reducing the symptoms of tremor. Male SD rats (SLAC, Shanghai, China) weighing about 250 g at the time of testing were housed in a 12:12 light-dark cycle room throughout the study, with the lights on from 5 a.m. to 5 p.m, and fed ad libitum. […]
The rHIT methods described in Example 5 were used. […] After the 20-minute baseline recording, rats were dosed with harmaline and the post-harmaline effect was measured for 20 minutes. […]

[1] = Food Effect Cohort (Cohort 4), plasma pharmacokinetics fasted vs high-fat meal; format: in vivo, human
Method: A Food Effect Cohort (Cohort 4) was conducted to assess the effect of food on the PK profile of a single dose of Compound 1 when administered to healthy subjects. The subjects of Cohort 4 were treated with 30 mg of Compound 1 QD.
Cohort 4 subjects received a single 30 mg dose of a Compound 1 suspension on Days 1 and 5. The Day 1 dose was administered after a minimum of 10 hour fasting. No additional fluid intake was allowed until 1 hour after drug administration. A standard meal was given at least 4 hours post-dose. The Day 5 dose was administered following a high-fat, high calorie meal. Participants remained at the clinical site for a total of 8 days to complete pharmacokinetic sampling after the second dose.
Plasma samples were analyzed to determine Compound 1 concentrations using a validated assay method. Pharmacokinetic variables (including but not limited to Cmax, Tmax and AUC(0-last)) were calculated using non-compartmental analysis. PK parameters for Compound 1 were derived from the plasma concentration data using non-compartmental analysis with Phoenix™ WinNonlin® v 8.0 (Pharsight Corporation, USA).
Blood (Cohort 4): Serial blood samples were collected relative to the dosing of Compound 1 at the following time points on both Day 1 and Day 5: Pre-dose (0 hours), 0.25, 0.50, 0.75, 1.00, 1.50, 2.00, 2.50, 3.00, 4.00, 6.00, 8.00, 12.00, 16.00, 24.00, 36.00, 48.00 and 72.00 hours post-dose (±2 min).

[2] = 30 mg single dose, Fasted (Day 1), n = 10, Mean
[3] = 30 mg single dose, Fed (high-fat, high calorie meal), n = 10, Mean

COC[C@@]1(O)CC[C@@]2(C)[C@@H](CC[C@@H]3[C@@H]2CC[C@]2(C)[C@@H](C(=O)Cn4ccnc4)CC[C@@H]32)C1 [Compound 1, 3α-Hydroxy-3β-methoxymethyl-21-(1′-imidazolyl)-5α-pregnan-20-one]
effect of Compound 1 on the efficacy of Compound 2 in treating tremor (harmaline-induced tremor; Compound 1 3 mg/kg p.o.): does not inhibit | effect of the addition of Compound 1 on the tremor-reducing effects of Compound 2 (harmaline-induced tremor; Compound 1 3 mg/kg p.o. (FIG. 11)): did not appear to enhance | t1/2 fasted vs fed conditions ([1]; 30 mg dose): similar | AUC increase in the fed state versus the fasted state ([1]; 30 mg dose group): 1.17 fold | AUC0-t Fed/Fasted Ratio ([1]; 30 mg dose, high-fat meal): 1.17 | Cmax Fed/Fasted Ratio ([1]; 30 mg dose, high-fat meal): 0.64 | AUC0-last [1, 2]: 597.7 ng·h/mL | AUC %Extrap [1, 2]: 0.8702% | AUCinf [1, 2]: 602.3 ng·h/mL | Cmax [1, 2]: 84.18 ng/mL | AUC0-last [1, 3]: 629.9 ng·h/mL | AUC %Extrap [1, 3]: 0.6632% | AUCinf [1, 3]: 634.2 ng·h/mL | Cmax [1, 3]: 45.36 ng/mL | Tmax ([1]; 30 mg single dose, Fed (high-fat, high calorie meal), n = 10, Median): 3.25 h | Cmax decrease under fed conditions ([1]; human, in vivo, 30 mg): 0.64 fold | half-life ([1]; human, in vivo, 30 mg single dose, Fasted (Day 1), n = 10, Mean): 11.2 h
